Source: patent US20100222349A1, “QUINOLINE DERIVATIVES USED TO TREAT INFLAMMATORY AND ALLERGIC DISEASES” (Glaxo Group Limited, priority 2007, published 2010)

molecular target: T1, histamine H3 receptor (Homo sapiens, UniProt Q9Y5N1); test: Histamine H3 functional antagonist assay (GTPγS, membranes); type: biochemical; details: CHO K1 membranes, [35S]-GTPγS, histamine at EC80; read-out: average pKi (pKb) at H3 (converted)
T1 construct: expressed in transfected cells; host or cells: CHO K1 cells with pSwitch/pGeneH3 (GeneSwitch, mifepristone-induced), clone 3H3; membrane preparation
Description: The histamine H3 cDNA is isolated from its holding vector, pcDNA3.1 TOPO (InVitrogen), by restriction digestion of plasmid DNA with the enzymes BamH1 and Not-1 and is ligated into the inducible expression vector pGene (InVitrogen) digested with the same enzymes. The GeneSwitchTM system (a system where in transgene expression is switched off in the absence of an inducer and switched on in the presence of an inducer) is performed as described in U.S. Pat. Nos. 5,364,791; 5,874,534; and 5,935,934. Ligated DNA is transformed into competent DH5α E. coli host bacterial cells and is plated onto Luria Broth (LB) agar containing ZeocinTM (an antibiotic which allows the selection of cells expressing the sh ble gene which is present on pGene and pSwitch) at 50 μgml^-1. Colonies containing the re-ligated plasmid are identified by restriction analysis. DNA for transfection into mammalian cells is prepared from 250 ml cultures of the host bacterium containing the […]3 plasmid and is isolated using a DNA preparation kit (Qiagen Midi-Prep) as per manufacturers guidelines (Qiagen). CHO K1 cells previously transfected with the pSwitch regulatory plasmid (InVitrogen) are seeded at 2×10^6 cells per T75 flask in Complete Medium, containing Hams F12 (GIBCOBRL, Life Technologies) medium supplemented with 10% v/v dialysed foetal bovine serum, L-glutamine, and hygromycin (100 μgml^-1), 24 h prior to use. Plasmid DNA is transfected into the cells using Lipofectamine plus according to the manufacturer's guidelines (InVitrogen). 48 h post transfection, cells are placed into complete medium supplemented with 500 μgml^-1 ZeocinTM. 10-14 days post selection, 10 nM Mifepristone (InVitrogen) is added to the culture medium to induce the expression of the receptor. 18 h post induction, cells are detached from the flask using ethylenediamine tetra-acetic acid (EDTA; 1:5000; InVitrogen), following several washes with PBS, pH 7.4 and are resuspended in Sorting Medium containing Minimum Essential Medium (MEM), without phenol red, and are supplemented with Earles salts and 3% Foetal Clone II (Hyclone). Approximately 1×10^7 cells are examined for receptor expression by staining with a rabbit polyclonal antibody, 4a, raised against the N-terminal domain of the histamine H3 receptor, are incubated on ice for 60 min, followed by two washes in sorting medium. Receptor bound antibody is detected by incubation of the cells for 60 min on ice with a goat anti rabbit antibody, conjugated with Alexa 488 fluorescence marker (Molecular Probes). Following two further washes with Sorting Medium, cells are filtered through a 50 μm FilconTM (BD Biosciences) and then are analysed on a FACS Vantage SE Flow Cytometer fitted with an Automatic Cell Deposition Unit. Control cells are non-induced cells treated in an analogous manner. Positively stained cells are sorted as single cells into 96-well plates, containing Complete Medium containing 500 μgml^-1 ZeocinTM and are allowed to expand before reanalysis for receptor expression via antibody and ligand binding studies. One clone, 3H3, is selected for membrane preparation. All steps of the protocol are carried out at 4° C. and with pre-cooled reagents. The cell pellet is resuspended in 10 volumes of homogenisation buffer (50 mM N-2-hydroxyethylpiperazine-N'-2-ethanesulfonic acid (HEPES), 1 mM ethylenediamine tetra-acetic acid (EDTA), pH 7.4 with KOH, supplemented with 10^-6 M leupeptin (acetyl-leucyl-leucyl-arginal; Sigma L2884), 25 μgml^-1 bacitracin (Sigma B0125), 1 mM phenylmethylsulfonyl fluoride (PMSF) and 2×10^-6 M pepstain A (Sigma)). The cells are then homogenised by 2×15 sec bursts in a 1 L glass Waring blender, followed by centrifugation at 500 g for 20 min. The supernatant is then spun at 48,000 g for 30 min. The pellet is resuspended in homogenisation buffer (4× the volume of the original cell pellet) by vortexing for 5 sec, followed by homogenisation in a Dounce homogeniser (10-15 strokes). […]

T1 sequence (Q9Y5N1 whole entry, species assumed): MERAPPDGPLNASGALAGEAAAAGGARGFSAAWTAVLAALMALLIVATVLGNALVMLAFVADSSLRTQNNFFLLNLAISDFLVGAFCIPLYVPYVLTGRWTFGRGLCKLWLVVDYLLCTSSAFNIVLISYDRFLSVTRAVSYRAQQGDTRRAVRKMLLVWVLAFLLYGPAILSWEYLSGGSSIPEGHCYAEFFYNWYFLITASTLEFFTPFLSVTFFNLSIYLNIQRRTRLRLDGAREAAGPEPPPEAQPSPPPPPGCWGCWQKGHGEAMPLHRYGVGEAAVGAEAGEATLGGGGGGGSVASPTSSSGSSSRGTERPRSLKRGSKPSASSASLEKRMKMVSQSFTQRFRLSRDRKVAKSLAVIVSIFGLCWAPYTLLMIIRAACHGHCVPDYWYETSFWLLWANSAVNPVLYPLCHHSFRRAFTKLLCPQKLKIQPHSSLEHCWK

Row | Ki [nM] | SMILES
1 | > 3160 | CCCCc1cc(OC2CCN(CCC(=O)NC(C)C)CC2)c2ncccc2c1 [Example 19, 3-{4-[(6-butyl-8-quinolinyl)oxy]-1-piperidinyl}-N-(1-methylethyl) propanamide]
2 | > 3160 | CCCCc1cc(OC2CCN(CCCC(=O)NCC)CC2)c2ncccc2c1 [Example 20, 4-{4-[(6-butyl-8-quinolinyl)oxy]-1-piperidinyl}-N-ethylbutanamide]
3 | > 3160 | CCCCc1cc(OC2CCN(CCCC(=O)NCCCOC)CC2)c2ncccc2c1 [Example 21, 4-{4-[(6-butyl-8-quinolinyl)oxy]-1-piperidinyl}-N-[3-(methyloxy)propyl] butanamide]
4 | > 3160 | CCCCc1cc(OC2CCN(CCCC(=O)NCCC)CC2)c2ncccc2c1 [Example 22, 4-{4-[(6-butyl-8-quinolinyl)oxy]-1-piperidinyl}-N-propylbutanamide]

Second part, the compound before the results:

Row | SMILES | Ki [nM]
5 | CCCCc1cc(OC2CCN(CC(=O)NC(C)(C)C)CC2)c2ncccc2c1 [Example 12, 2-{4-[(6-butyl-8-quinolinyl)oxy]-1-piperidinyl}-N-(1,1-dimethylethyl) acetamide] | > 3160
6 | CCCCc1cc(OC2CCN(CC(=O)N3CCCCC3)CC2)c2ncccc2c1 [Example 13, 6-butyl-8-({1-[2-oxo-2-(1-piperidinyl)ethyl]-4-piperidinyl}oxy) quinoline] | > 3160
7 | CCCCc1cc(OC2CCN(CC(=O)NC(C)C)CC2)c2ncccc2c1 [Example 14, 2-{4-[(6-butyl-8-quinolinyl)oxy]-1-piperidinyl}-N-(1-methylethyl)acetamide] | > 3160
8 | CCCCc1cc(OC2CCN(CCC(=O)NCC)CC2)c2ncccc2c1 [Example 15, 3-{4-[(6-butyl-8-quinolinyl)oxy]-1-piperidinyl}-N-ethylpropanamide] | > 3160
9 | CCCCc1cc(OC2CCN(CCC(=O)NCCCOC)CC2)c2ncccc2c1 [Example 16, 3-{4-[(6-butyl-8-quinolinyl)oxy]-1-piperidinyl}-N-[3-(methyloxy)propyl] propanamide] | > 3160
10 | CCCCc1cc(OC2CCN(CCC(=O)NC(C)(C)C)CC2)c2ncccc2c1 [Example 17, 3-{4-[(6-butyl-8-quinolinyl)oxy]-1-piperidinyl}-N-(1,1-dimethylethyl) propanamide] | > 3160
11 | CCCCc1cc(OC2CCN(CCC(=O)N3CCCCC3)CC2)c2ncccc2c1 [Example 18, 6-butyl-8-({1-[3-oxo-3-(1-piperidinyl)propyl]-4-piperidinyl}oxy) quinoline] | > 316

molecular target: T2, human H1 receptor (Homo sapiens, UniProt P35367); test: Histamine H1 functional antagonist assay: determination of functional pKi values (FLIPR); type: cell-based; details: CHO cells expressing human H1 receptor, histamine at EC80, read-out: average pKi (pKb) at H1 (converted)
T2 construct: expressed in transfected cells
Description: The human H1 receptor is cloned using known procedures described in the literature [Biochem. Biophys. Res. Commun., 201(2):894 (1994)]. Chinese hamster ovary (CHO) cells stably expressing the human H1 receptor are generated according to known procedures described in the literature [Br. J. Pharmacol., 117(6):1071 (1996)]. The histamine H1 cell line is seeded into non-coated black-walled clear bottom 384-well tissue culture plates in alpha minimum essential medium (Gibco/Invitrogen, cat no. 22561-021), supplemented with 10′)/0 dialysed foetal calf serum (Gibco/Invitrogen cat no. 12480-021) and 2 mM L-glutamine (Gibco/Invitrogen cat no 25030-024) and is maintained overnight at 5% CO2, 37° C. Excess medium is removed from each well to leave 10 μl. 30 μl loading dye (250 μM Brilliant Black, 2 μM Fluo-4 diluted in Tyrodes buffer+probenecid (145 mM NaCl, 2.5 mM KCl, 10 mM HEPES, 10 mM D-glucose, 1.2 mM MgCl2, 1.5 mM CaCl2, 2.5 mM probenecid, pH adjusted to 7.40 with NaOH 1.0 M)) is added to each well and the plates are incubated for 60 min at 5% CO2, 37° C. 10 μl of test compound, diluted to the required concentration in Tyrodes buffer+probenecid (or 10 μl Tyrodes buffer+probenecid as a control) is added to each well and the plate is incubated for 30 min at 37° C., 5% CO2. The plates are then placed into a FLIPR™(Molecular Devices, UK) to monitor cell fluorescence (λex=488 nm, λEM=540 nm) in the manner described in Sullivan et al., (In: Lambert DG (ed.), Calcium Signaling Protocols, New Jersey: Humana Press, 1999, 125-136) before and after the addition of 10 μl histamine at a concentration that results in the final assay concentration of histamine being EC80. Functional antagonism is indicated by a suppression of histamine induced increase in fluorescence, as measured by the FLIPR™ system (Molecular Devices). By means of concentration effect curves, functional affinities are determined using standard pharmacological mathematical analysis.

T2 sequence (P35367 whole entry): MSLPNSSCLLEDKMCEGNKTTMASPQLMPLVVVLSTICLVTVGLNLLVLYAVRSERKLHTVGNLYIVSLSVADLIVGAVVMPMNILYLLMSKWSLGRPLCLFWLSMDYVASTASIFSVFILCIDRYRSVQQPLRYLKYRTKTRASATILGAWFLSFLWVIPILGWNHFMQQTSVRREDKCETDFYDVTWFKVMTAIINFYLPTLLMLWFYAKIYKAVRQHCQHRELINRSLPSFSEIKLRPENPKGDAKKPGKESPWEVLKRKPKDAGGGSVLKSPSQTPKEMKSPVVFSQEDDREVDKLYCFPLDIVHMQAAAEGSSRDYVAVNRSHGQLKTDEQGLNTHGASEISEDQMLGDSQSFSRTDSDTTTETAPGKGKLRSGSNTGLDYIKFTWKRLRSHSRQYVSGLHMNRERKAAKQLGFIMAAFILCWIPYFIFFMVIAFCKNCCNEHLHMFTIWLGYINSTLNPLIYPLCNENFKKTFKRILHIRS

Row | Ki [nM] | SMILES
12 | < 10 | CCCCc1cc(OC2CCN(CCC(=O)NC(C)C)CC2)c2ncccc2c1 [Example 19, 3-{4-[(6-butyl-8-quinolinyl)oxy]-1-piperidinyl}-N-(1-methylethyl) propanamide]
13 | < 10 | CCCCc1cc(OC2CCN(CCCC(=O)NCC)CC2)c2ncccc2c1 [Example 20, 4-{4-[(6-butyl-8-quinolinyl)oxy]-1-piperidinyl}-N-ethylbutanamide]
14 | < 10 | CCCCc1cc(OC2CCN(CCCC(=O)NCCCOC)CC2)c2ncccc2c1 [Example 21, 4-{4-[(6-butyl-8-quinolinyl)oxy]-1-piperidinyl}-N-[3-(methyloxy)propyl] butanamide]
15 | < 10 | CCCCc1cc(OC2CCN(CCCC(=O)NCCC)CC2)c2ncccc2c1 [Example 22, 4-{4-[(6-butyl-8-quinolinyl)oxy]-1-piperidinyl}-N-propylbutanamide]
16 | < 10 | CCCCc1cc(OC2CCN(CCCCC(=O)NC(C)C)CC2)c2ncccc2c1 [Example 32, 5-{4-[(6-butyl-8-quinolinyl)oxy]-1-piperidinyl}-N-(1-methylethyl) pentanamide]

The remaining lines, values behind:

Row | SMILES | Ki [nM]
17 | CCCCc1cc(OC2CCN(CC(=O)NC(C)(C)C)CC2)c2ncccc2c1 [Example 12, 2-{4-[(6-butyl-8-quinolinyl)oxy]-1-piperidinyl}-N-(1,1-dimethylethyl) acetamide] | < 100
18 | CCCCc1cc(OC2CCN(CC(=O)N3CCCCC3)CC2)c2ncccc2c1 [Example 13, 6-butyl-8-({1-[2-oxo-2-(1-piperidinyl)ethyl]-4-piperidinyl}oxy) quinoline] | < 100
19 | CCCCc1cc(OC2CCN(CC(=O)NC(C)C)CC2)c2ncccc2c1 [Example 14, 2-{4-[(6-butyl-8-quinolinyl)oxy]-1-piperidinyl}-N-(1-methylethyl)acetamide] | < 100
20 | CCCCc1cc(OC2CCN(CCC(=O)NCC)CC2)c2ncccc2c1 [Example 15, 3-{4-[(6-butyl-8-quinolinyl)oxy]-1-piperidinyl}-N-ethylpropanamide] | < 100
21 | CCCCc1cc(OC2CCN(CCC(=O)NCCCOC)CC2)c2ncccc2c1 [Example 16, 3-{4-[(6-butyl-8-quinolinyl)oxy]-1-piperidinyl}-N-[3-(methyloxy)propyl] propanamide] | < 10
22 | CCCCc1cc(OC2CCN(CCC(=O)NC(C)(C)C)CC2)c2ncccc2c1 [Example 17, 3-{4-[(6-butyl-8-quinolinyl)oxy]-1-piperidinyl}-N-(1,1-dimethylethyl) propanamide] | < 10
23 | CCCCc1cc(OC2CCN(CCC(=O)N3CCCCC3)CC2)c2ncccc2c1 [Example 18, 6-butyl-8-({1-[3-oxo-3-(1-piperidinyl)propyl]-4-piperidinyl}oxy) quinoline] | < 10
